Reference: patent publication US6538106B1, “Compositions and methods for treating infections using analogues of indolicidin” (priority 1996, dated 2003)
Read-outs that look alike come from different tables or passages of the source.

Experiments:
[1] = test system: S. epidermidis; experiment: Broth dilution assay (MIC); format: cell-based; details: S. epidermidis SE005
Procedure: (§1) This assay also uses calcium and magnesium supplemented Mueller Hinton broth as the growth medium. Typically 100 μl of broth is dispensed into each well of a 96-well microtitre plate and 100 μl volumes of two-fold serial dilutions of the peptide analogue are made across the plate. One row of wells receives no peptide and is used as a growth control. Each well is inoculated with approximately 5×10^5 CFU of bacteria and the plate is incubated at 35-37° C. for 16-20 hours.
(§2) For example, MIC values were established for a series of peptide analogues against S. aureus strains.

[2] = test system: S. aureus; experiment: Synergy assay (agarose dilution, FIC); format: cell-based; details: for Mupirocin Comb. MIC: MIC of Mupirocin in combination with the peptide; for Peptide Comb. MIC: MIC of peptide in combination with Mupirocin; for FIC: peptide + Mupirocin
Procedure: (§3) Briefly, one assay for in vitro anti-bacterial activity, the agarose dilution assay, is set up with an array of plates that each contain a combination of peptide analogue and antibiotic in various concentrations. The plates are inoculated with bacterial isolates, incubated, and the MICs of the components recorded. […] Antibiotics used in testing include, but are not limited to, penicillins, cephalosporins, carbacephems, cephamycins, carbapenems, monobactams, aminoglycosides, glycopeptides, quinolones, tetracyclines, macrolides, and fluoroquinolones (see Table 1 below).
(§4) Synergy is calculated according to the formula below. An FIC of ≦0.5 is evidence of synergy, although combinations with higher values may be therapeutically useful. [formula]
Synergy is assayed using the agarose dilution technique, where an array of plates, each containing a combination of peptide and antibiotic in a unique concentration mix, is inoculated with the bacterial isolates. Synergy is investigated for peptide analogues in combination with a number of conventional antibiotics including, but not limited to, penicillins, cephalosporins, carbapenems, monobactams, aminoglycosides, macrolides, fluoroquinolones.
(§5) Synergy is expressed as a Fractional Inhibitory Concentration (FIC), which is calculated according to the equation below. An FIC of less than or equal to 0.5 is evidence of synergy, although combinations with higher values may be therapeutically useful. [formula]

[3] = test system: E. coli; experiment: Synergy assay (agarose dilution, FIC); format: cell-based; details: E. coli ECO1
Procedure: as §3, §4
(§6) Treatment with a combination of peptide analogues and conventional antibiotics can have a synergistic effect. Synergy is assayed using the agarose dilution technique, where an array of plates, each containing a combination of peptide and antibiotic in a unique concentration mix, is inoculated with the bacterial isolates. Synergy is investigated for peptide analogues in combination with a number of conventional antibiotics including, but not limited to, penicillins, cephalosporins, carbapenems, monobactams, aminoglycosides, macrolides, fluoroquinolones.
as §5

[4] = test system: E. faecalis; experiment: Synergy assay (agarose dilution, FIC); format: cell-based; details: E. faecalis EFS8
Procedure: as §3, §4, §6, §5

[5] = test system: P. aeruginosa; experiment: Synergy assay (agarose dilution, FIC); format: cell-based; details: P. aeruginosa PA3
Procedure: as §3, §4, §6, §5

[6] = test system: S. marcescens; experiment: Synergy assay (agarose dilution, FIC); format: cell-based; details: S. marcescens SBSM1
Procedure: as §3, §4, §6, §5

[7] = test system: A. calcoaceticus; experiment: Broth dilution assay (MIC); format: cell-based; details: A. calcoaceticus AC001
Procedure: as §1, §2

[8] = test system: E. cloacae; experiment: Broth dilution assay (MIC); format: cell-based; details: E. cloacae ECL007
Procedure: as §1, §2

[9] = test system: E. coli; experiment: Broth dilution assay (MIC); format: cell-based; details: E. coli ECO005
Procedure: as §1, §2

[10] = test system: E. faecalis; experiment: Broth dilution assay (MIC); format: cell-based; details: E. faecalis EFS004
Procedure: as §1, §2

[11] = test system: K. pneumoniae; experiment: Broth dilution assay (MIC); format: cell-based; details: K. pneumoniae KP001
Procedure: as §1, §2

[12] = test system: P. aeruginosa; experiment: Broth dilution assay (MIC); format: cell-based; details: P. aeruginosa PA004
Procedure: as §1, §2

[13] = test system: S. aureus; experiment: Broth dilution assay (MIC); format: cell-based; details: S. aureus SA002
Procedure: as §1, §2

[14] = test system: S. maltophilia; experiment: Broth dilution assay (MIC); format: cell-based; details: S. maltophilia SMA002
Procedure: as §1, §2

[15] = test system: S. marcescens; experiment: Broth dilution assay (MIC); format: cell-based; details: S. marcescens SMS003
Procedure: as §1, §2

[16] = test system: E.coli strain ML-35; format: cell-based; details: for Growth time of cells at which maximum activity occurs: 50 μg/ml peptide
[17] = test system: MSSA (Smith, ATCC # 19640); experiment: MSSA infection, mouse survival; format: in vivo, mice; details: below 14.5 mg/kg ip, formulation D
[18] = test system: A. calcoaceticus; experiment: MIC of APS-modified and parent peptides; format: cell-based; details: A. calcoaceticus AC002
[19] = test system: E. coli; experiment: MIC of APS-modified and parent peptides; format: cell-based; details: E. coli ECO005
[20] = test system: E. faecalis; experiment: MIC of APS-modified and parent peptides; format: cell-based
Procedure: (§7) All biological assays that compare APS-modified peptides with unmodified peptides are performed on an equimolar ratio. The concentration of APS-modified peptides can be determined by spectrophotometric measurement, which is used to normalize concentrations for biological assays.
(§8) APS-modified peptides are at least as potent as the parent peptides in in vitro assays performed as described herein. MIC values against gram positive bacteria are presented for several APS-modified peptides and compared with the values obtained using the parent peptides (Table 22).

[21] = test system: S. aureus; experiment: MIC of APS-modified and parent peptides; format: cell-based
Procedure: as §7, §8

[22] = test system: P. aeruginosa; experiment: MIC of APS-modified and parent peptides; format: cell-based; details: P. aeruginosa PA004
[23] = test system: S. maltophilia; experiment: MIC of APS-modified and parent peptides; format: cell-based; details: S. maltophilia SMA002
[24] = test system: S. marcescens; experiment: MIC of APS-modified and parent peptides; format: cell-based; details: S. marcescens SMS003
[25] = test system: E. cloacae; experiment: MIC of APS-modified and parent peptides; format: cell-based; details: E. cloacae ECL007
[26] = test system: K. pneumoniae; experiment: MIC of APS-modified and parent peptides; format: cell-based; details: K. pneumoniae KP001
[27] = MIC of Mupirocin in combination with the peptide
[28] = MIC of peptide in combination with Mupirocin

Substance	MIC [1] [mg/L]	MIC [7] [mg/L]	MIC [8] [mg/L]	MIC [9] [mg/L]	MIC [10] [mg/L]	MIC [11] [mg/L]	MIC [12] [mg/L]	MIC [13] [mg/L]	MIC [14] [mg/L]	MIC [15] [mg/L]	Corrected MIC [19] [mg/L]	Corrected MIC ([20]; E. faecalis EFS004) [mg/L]	Corrected MIC ([20]; E. faecalis EFS008) [mg/L]	Corrected MIC [23] [mg/L]	further results
I L K K F P F F P F R R K [MBI 11A1CN]	16	–	–	–	–	–	–	–	–	–	–	–	–	–	Mupirocin Comb. MIC ([2]; S. aureus SBSA3): 100 mg/L; Peptide Comb. MIC ([2]; S. aureus SBSA3): >128 mg/L; FIC ([2]; S. aureus SBSA3): 2; Mupirocin Comb. MIC ([2]; S. aureus SBSA5): 10 mg/L; Peptide Comb. MIC ([2]; S. aureus SBSA5): 32 mg/L; FIC ([2]; S. aureus SBSA5): 0.58; Mupirocin Comb. MIC [3, 27]: 10 mg/L; Peptide Comb. MIC [3, 28]: 4 mg/L; FIC ([3]; peptide + Mupirocin): 0.14; Mupirocin Comb. MIC [4, 27]: 100 mg/L; Peptide Comb. MIC [4, 28]: >128 mg/L; FIC ([4]; peptide + Mupirocin): 2; Mupirocin Comb. MIC [5, 27]: >100 mg/L; Peptide Comb. MIC [5, 28]: >128 mg/L; FIC ([5]; peptide + Mupirocin): 2; Mupirocin Comb. MIC [6, 27]: >100 mg/L; Peptide Comb. MIC [6, 28]: >128 mg/L; FIC ([6]; peptide + Mupirocin): 2
I L K K I P I I P I R R K [MBI 11A2CN]	256	>256	>256	>256	>256	>256	>256	>256	>256	>256	–	–	–	–	–
I L P W K W P W W P W R R [MBI 10CN]	8	64	256	64	64	64	>256	16	64	>256	–	–	–	–	ONPG hydrolysis diminished, cells pre-incubated with valinomycin vs no pre-incubation ([16]; valinomycin pre-incubation): approximately 50%; survival at lower doses [17]: clear dose-dependent survival
I L R R W P W W P W R K [MBI 11B2CN]	4	128	>256	64	64	>256	256	32	32	>256	–	–	–	–	–
I L R R W P W W P W R R K [MBI 11B1CN]	4	64	>256	64	64	>256	64	32	32	>256	8	8	32	128	Corrected MIC [18]: 2 mg/L; Corrected MIC ([21]; S. aureus SA010): 1 mg/L; Corrected MIC ([21]; S. aureus SA014): 8 mg/L; Corrected MIC ([21]; S. aureus SA018): 16 mg/L; Corrected MIC ([21]; S. aureus SA025): 1 mg/L; Corrected MIC ([21]; S. aureus SA093): 1 mg/L; Corrected MIC [22]: 128 mg/L; Corrected MIC [24]: >128 mg/L
I L R W P W W P W R R K [MBI 11B7CN]	4	64	>256	64	64	256	256	16	32	>256	8	8	32	32	Growth time of cells at which maximum activity occurs ([16]; early mid-log): 140 min; Growth time of cells at which maximum activity occurs ([16]; late mid-log): 230 min; Effect on membrane permeabilizing activity ([16]; peptide pre-incubated in HEPES/sucrose buffer with 5 mM Mg2+): significant inhibition; Effect on membrane permeabilizing activity ([16]; peptide pre-incubated in HEPES/sucrose buffer with 150 mM NaCl): significant inhibition; Corrected MIC ([20]; E. faecalis EFS001): 8 mg/L
i L K K W P W W P W R R k [MBI 11E3CN]	–	–	–	–	–	–	–	–	–	–	8	2	16	64	Corrected MIC [18]: 2 mg/L; Corrected MIC [25]: >128 mg/L; Corrected MIC ([20]; E. faecalis EFS001): 8 mg/L; Corrected MIC ([21]; S. aureus SA010): 1 mg/L; Corrected MIC ([21]; S. aureus SA011): 4 mg/L; Corrected MIC ([21]; S. aureus SA014): 4 mg/L; Corrected MIC ([21]; S. aureus SA018): 16 mg/L; Corrected MIC ([21]; S. aureus SA025): 1 mg/L; Corrected MIC ([21]; S. aureus SA093): 1 mg/L; Corrected MIC [26]: 8 mg/L; Corrected MIC [22]: 128 mg/L; Corrected MIC [24]: >128 mg/L
